Assay type in all cases: cell-based
One assay relates to fresh morning saliva. Description: In-vitro test to reduce bad breath (liquid medium inoculated with fresh morning saliva, sniffed by a panel). As for the experimental part: In-Vitro Test to Reduce Bad Breath
The test is based on the work of Goldberg and Rosenberg (Production of Oral Malodor in an in vitro System, S. Goldberg and M. Rosenberg, pp.143 -150, in: Bad Breath—A multidisciplinary Approach, Eds: D. van Steenberghe, M. Rosenberg, Leuven University Press, 1996) and has been adapted to improve reproducibility.
A sterile liquid medium inoculated with fresh morning saliva is incubated for a few days at 37° C. and then sniffed by a panel of testers.
An intensive odour characteristic of bad breath has formed. Uninoculated controls have only a faint odour of the medium.
As a control for the tests, Triclosan® (5-chloro-2-(2,4-dichlorophenoxy)phenol) was added to inoculated samples in a concentration of 0.05%.

The subject of another assay is Pseudomonas aeruginosa. As to the kind of experiment: Minimum inhibiting concentration, serial-dilution test. On the procedure: (§1) Determination of the Minimum Inhibiting Concentration 5 The minimum inhibiting concentration (MIC) of beta-homocyclocitral was determined in a serial-dilution test against various bacteria.
For another assay, the system named is Streptococcus mutans. Described as above. On the procedure:
as §1

Assay [1] concerns Escherichia coli. The description is as above. On the procedure: as §1
In a further assay the test system is Staphylococcus aureus. Described as above. As for the experimental part:
as §1

A further assay has as its system Porphyromonas gingivalis. Described as above. As for the experimental part:
as §1

The test system of the next assay is Prevotella intermedia. The description is as above. As for the experimental part: as §1
The subject of another assay is Veilonella parvula. The description is as above. On the procedure: as §1
Another assay deals with Fusobacterium nucleatum. The assay is described as above. As for the experimental part: as §1
Assay [2] deals with total number of bacteria in the samples of saliva. As to the kind of experiment: Further test: total number of bacteria in samples of saliva. Conditions: concentration of 1000 ppm.
Another assay relates to Pseudomonas aruginosa. As to the kind of experiment: Further tests at 1000 ppm. Conditions: concentration of 1000 ppm.
Assay [3] deals with Escherichia coli. Description: Further tests at 1000 ppm. As to conditions: concentration of 1000 ppm.
Setting [4] is: 0.05% added to inoculated samples at the start of the test, 37° C., a few days.

From US20080063610A1, “Use of Beta-Homocyclocitral as an Agent Against Bad Breath” (SYMRISE GMBH & CO. KG, priority 2004, published 2008) come the findings set out here.

Converted amounts (≈) assume the structure as drawn.

Regarding `Oc1cc(Cl)ccc1Oc1ccc(Cl)cc1Cl` [Triclosan®, 5-chloro-2-(2,4-dichlorophenoxy)phenol, reference compound], in the assay with fresh morning saliva (setting [4]), the “odour after the incubation period” value was “same faint odour of medium as the uninoculated samples”.

One may read the MIC as the smallest concentration in the dilution series that meets the test's criterion for growth inhibition. A high value points to a need for much substance. Regarding `CC1=C(CC=O)C(C)(C)CCC1` [beta-homocyclocitral, 2,6,6-trimethyl-1-cyclohexene-1-acetaldehyde], the minimal inhibitory concentration (MIC) was over 1000 µg/mL in the assay with Pseudomonas aeruginosa; 500 µg/mL (≈ 3010 µM) in the assay with Streptococcus mutans (bactericidal); over 1000 µg/mL against Escherichia coli [1]; 500 µg/mL (≈ 3010 µM) against Staphylococcus aureus; 125 µg/mL (≈ 752 µM) in the assay on Porphyromonas gingivalis; 250 µg/mL (≈ 1500 µM) against Prevotella intermedia (bactericidal). Also, the values for the MIC against Prevotella intermedia (bacteriostatic), in the assay on Veilonella parvula (bactericidal) and in the assay on Fusobacterium nucleatum (bactericidal) were 125 µg/mL (≈ 752 µM), 500 µg/mL (≈ 3010 µM) and 250 µg/mL (≈ 1500 µM), respectively. In addition, the Type result in the assay with Pseudomonas aeruginosa is “No action up to 1000 ppm”; with Streptococcus mutans it was “bactericidal action”; in the assay on Escherichia coli [1], “No action up to 1000 ppm”; with Veilonella parvula, “bactericidal action”; in the assay on Fusobacterium nucleatum, “bactericidal action”. Further, the “odour after the incubation period” value with fresh morning saliva (0.01% added to inoculated samples) is given as “a changed characteristic odour or a mixed odour was discernible in some cases”; with fresh morning saliva (0.025% added to inoculated samples), “no odour”; in the assay with fresh morning saliva (setting [4]), “a slight characteristic odour is discernible”. Besides, the “odour at sensory assessment” value in the assay on fresh morning saliva (0.05% added to the inoculated medium just one hour before the sensory assessment) is “unpleasant mixed odour of bad breath and a faint beta-homocyclocitral note”. In the assay with fresh morning saliva (no odour after the incubation period), this compound registered a minimum effective concentration of 0.025%. Moreover, the “reduction of the total number of bacteria in samples of saliva” value in assay [2] is “no significant reduction”. For the same compound, the “reduction with regard to Pseudomonas aruginosa” value in the assay with Pseudomonas aruginosa was “no significant reduction”. Further, the “reduction with regard to Escherichia coli” value in the assay on Escherichia coli [3] is given as “no significant reduction”.
